This is an account of results in patent publication US10774083B2, “Heterocyclic amide compound” (TAKEDA PHARMACEUTICAL COMPANY LIMITED, priority 2016, dated 2020).

The test system of assay [1] is human ovarian cancer cells A2780. Description: proliferation inhibitory activity against human ovarian cancer cell A2780 (CellTiter-Glo). Format: cell-based. The following applies: A2780, 72 h, 1 μM test compound, 3 days of culture, read-out: proliferation inhibitory rate (%) of A2780 cells. The protocol: The proliferation inhibitory activity of the compound of the present invention against human ovarian cancer cell A2780 was evaluated by the following method.
Human ovarian cancer cells A2780 were seeded in a 384 well culture plate at 1000 cells in 30 μL of medium per well by using RPMI-1640 medium (Wako Pure Chemical Industries, Ltd.) containing 10% fetal bovine serum and penicillin/streptomycin. The next day, 10 μL of RPMI-1640 medium containing the test compound was added to the cells. After 3 days of culture, 20 μL of CellTiter-Glo Luminescent Cell Viability Assay solution (Promega) was added. The luminescence signal was measured using EnVision (PerkinElmer) and the inhibitory rate (%) of the test compound was calculated with a well free of seeding of cell as 100% inhibition.
(In general: Cellular ATP, detected with luciferase, serves as a proxy for viable cell number.)

The target in assay [2] is T1, human PRS protein (His-Avi-hEPRS (998-1512)) (Homo sapiens, UniProt P07814).
T1 construct: to construct His-Avi-hEPRS (998-1512) expression plasmid; His tag (N); Avi tag (N); TEV cleavage site (ENLYFQG, then S; inferred from the forward primer hEPRS-TEV-NheF) (N); made in house; host or cells: E. coli BL21(DE3)
T1 sequence (P07814 998-1512 limits assumed): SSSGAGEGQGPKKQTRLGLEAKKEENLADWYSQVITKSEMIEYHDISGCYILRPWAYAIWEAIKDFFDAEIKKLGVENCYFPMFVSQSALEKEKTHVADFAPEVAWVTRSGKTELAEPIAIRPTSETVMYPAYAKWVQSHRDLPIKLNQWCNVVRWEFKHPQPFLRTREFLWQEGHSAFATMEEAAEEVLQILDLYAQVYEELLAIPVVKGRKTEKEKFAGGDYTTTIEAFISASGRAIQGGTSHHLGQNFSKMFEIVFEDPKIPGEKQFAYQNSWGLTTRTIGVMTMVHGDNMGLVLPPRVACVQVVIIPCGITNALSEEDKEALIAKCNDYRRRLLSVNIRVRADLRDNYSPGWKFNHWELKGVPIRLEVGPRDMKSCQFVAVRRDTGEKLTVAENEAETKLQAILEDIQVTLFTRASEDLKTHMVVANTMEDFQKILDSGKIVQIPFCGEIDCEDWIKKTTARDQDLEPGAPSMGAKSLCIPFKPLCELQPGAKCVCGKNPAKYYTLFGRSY
Description: PRS inhibitory activity ([32P]pyrophosphate exchange enzyme assay). It is filed as biochemical. The following applies: 300 nM test compound; read-out: inhibitory rate (%) of PRS. The method in brief: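 Compound was pre-incubated 60 min with 40 nM His-Avi-hEPRS (998-1512) (stock, E. coli-expressed) in Tris pH 7.5/KCl/DTT/Tween/MgCl2. Reaction began with substrate mix containing 300 μM ATP, 160 μM L-proline, 400 μM [32P]pyrophosphate (stock levels) and ran 30 min at room temperature. Charcoal-bound radioactivity was counted; inhibition was relative to no-reaction control.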

Take `Cn1cc(-c2cc(F)cc(CNC(=O)c3ncnc4nc(C5CCOC5)[nH]c34)c2)cn1` (stereo not shown) [Example 24, N-(3-fluoro-5-(1-methyl-1H-pyrazol-4-yl)benzyl)-8-(tetrahydrofuran-3-yl)-7H-purine-6-carboxamide]: the inhibition at 1 µM in assay [1] turned out to be 57%. In assay [2], the inhibition at 0.3 µM came to 96%.

As for `Cn1cc(-c2cc(F)cc(CNC(=O)c3ncnc4nc(C5CCC5)[nH]c34)c2)cn1` [Example 58, 8-cyclobutyl-N-(3-fluoro-5-(1-methyl-1H-pyrazol-4-yl)benzyl)-7H-purine-6-carboxamide], the inhibition at 1 µM in assay [1] was 66%. The inhibition at 0.3 µM in assay [2] was determined as 99%.

With `O=C(NCc1ccccc1Cl)c1nccc2nc(C3CCCC3)[nH]c12` [Example 81, N-(2-chlorobenzyl)-2-cyclopentyl-3H-imidazo[4,5-c]pyridine-4-carboxamide], the inhibition at 1 µM in assay [1] stood at 56%. Moreover, the inhibition at 0.3 µM in assay [2] came out at 97%.

`Cn1cc(-c2cc(C#N)cc(CNC(=O)c3ncnc4nc(C5CCCC5)[nH]c34)c2)cn1` [Example 16, N-(3-cyano-5-(1-methyl-1H-pyrazol-4-yl)benzyl)-8-cyclopentyl-7H-purine-6-carboxamide]: the inhibition at 1 µM in assay [1] stood at 93%. Besides, the inhibition at 0.3 µM in assay [2] was 102%.

In the case of `Cc1cc(N2CC[C@@](C#N)(C3CC3)C2=O)cc(C(=O)NCc2cc(F)cc(-c3cnc(C)s3)c2)n1` [Example 187, 4-((3S)-3-cyano-3-cyclopropyl-2-oxopyrrolidin-1-yl)-N-(3-fluoro-5-(2-methyl-1,3-thiazol-5-yl)benzyl)-6-methylpyridine-2-carboxamide], the inhibition at 1 µM in assay [1] stood at 65%. In addition, the inhibition at 0.3 µM in assay [2] was found to be 99%.

As for `Cn1cc(-c2cc(F)cc(CNC(=O)c3nccc4nc(C5CCCC5)[nH]c34)c2)cn1` [Example 86, 2-cyclopentyl-N-(3-fluoro-5-(1-methyl-1H-pyrazol-4-yl)benzyl)-3H-imidazo[4,5-c]pyridine-4-carboxamide], the inhibition at 1 µM in assay [1] came to 97%. For the same compound, in assay [2], the inhibition at 0.3 µM came out at 101%.

For the compound `Cn1cc(-c2cc(F)cc(CNC(=O)c3nccc4nc(C5CCCC5)n(C)c34)c2)cn1` [Example 88, 2-cyclopentyl-N-(3-fluoro-5-(1-methyl-1H-pyrazol-4-yl)benzyl)-3-methyl-3H-imidazo[4,5-c]pyridine-4-carboxamide], the inhibition at 1 µM in assay [1] amounted to 99%. Further, in assay [2], the inhibition at 0.3 µM is 101%.

With `Cn1c(C2CCCC2)nc2ccnc(C(=O)NCc3cc(F)cc(-c4cc[nH]c(=O)c4)c3)c21` [Example 97, 2-cyclopentyl-N-(3-fluoro-5-(2-oxo-1,2-dihydropyridin-4-yl)benzyl)-3-methyl-3H-imidazo[4,5-c]pyridine-4-carboxamide], in assay [1], the inhibition at 1 µM was determined as 98%. Besides, the inhibition at 0.3 µM in assay [2] was 101%.

With `COc1nc(C(=O)NCc2cc(F)cc(-c3cnn(C)c3)c2)c2[nH]c(C3CCCC3)nc2n1` [Example 18, 8-cyclopentyl-N-(3-fluoro-5-(1-methyl-1H-pyrazol-4-yl)benzyl)-2-methoxy-7H-purine-6-carboxamide], in assay [1], the inhibition at 1 µM was 77%. The inhibition at 0.3 µM in assay [2] is 99%.

Consider `Cn1cc(-c2cc(F)cc(CNC(=O)c3ncnc4nc(C5CCC(F)(F)C5)[nH]c34)c2)cn1` (stereo not shown) [Example 40, 8-(3,3-difluorocyclopentyl)-N-(3-fluoro-5-(1-methyl-1H-pyrazol-4-yl)benzyl)-7H-purine-6-carboxamide], for which the inhibition at 1 µM in assay [1] stood at 98%. Further, the inhibition at 0.3 µM in assay [2] was 102%.

As for `Cn1cc(-c2cc(F)cc(CNC(=O)c3ncnc4nc(C5CCCC5)n(C)c34)c2)cn1` [Example 3, 8-cyclopentyl-N-(3-fluoro-5-(1-methyl-1H-pyrazol-4-yl)benzyl)-7-methyl-7H-purine-6-carboxamide], the inhibition at 1 µM in assay [1] was determined as 99%. The inhibition at 0.3 µM in assay [2] was determined as 101%.

With `Cc1cc(N2CC[C@@](C#N)(C3CC3)C2=O)cc(C(=O)NCc2cc(C#N)cc(-c3cnn(C)c3)c2)n1` [Example 167, 4-((3S)-3-cyano-3-cyclopropyl-2-oxopyrrolidin-1-yl)-N-(3-cyano-5-(1-methyl-1H-pyrazol-4-yl)benzyl)-6-methylpyridine-2-carboxamide], the inhibition at 1 µM in assay [1] is 98%. The inhibition at 0.3 µM in assay [2] was 99%.

In the case of `Cn1ccc(-c2cc(F)cc(CNC(=O)c3nccc4nc(C5CCCC5)n(C)c34)c2)cc1=O` [Example 98, 2-cyclopentyl-N-(3-fluoro-5-(1-methyl-2-oxo-1,2-dihydropyridin-4-yl)benzyl)-3-methyl-3H-imidazo[4,5-c]pyridine-4-carboxamide], in assay [1], the inhibition at 1 µM turned out to be 98%. Moreover, the inhibition at 0.3 µM in assay [2] was determined as 101%.

For `Cc1cc(N2C(=O)[C@](C#N)(C3CC3)C[C@@H]2C)cc(C(=O)NCc2cc(F)cc(-c3cnn(C)c3)c2)n1` [Example 221, 4-((3S,5S)-3-cyano-3-cyclopropyl-5-methyl-2-oxopyrrolidin-1-yl)-N-(3-fluoro-5-(1-methyl-1H-pyrazol-4-yl)benzyl)-6-methylpyridine-2-carboxamide], the inhibition at 1 µM in assay [1] was found to be 64%. In addition, the inhibition at 0.3 µM in assay [2] was 99%.

As to `COc1cc(-c2cc(F)cc(CNC(=O)c3nccc4nc(C5CCCC5)n(C)c34)c2)ccn1` [Example 96, 2-cyclopentyl-N-(3-fluoro-5-(2-methoxypyridin-4-yl)benzyl)-3-methyl-3H-imidazo[4,5-c]pyridine-4-carboxamide], in assay [1], the inhibition at 1 µM is 95%. The inhibition at 0.3 µM in assay [2] amounted to 101%.

Consider `Cn1c(C2CCCC2)nc2ncnc(C(=O)NCc3cc(F)cc(-c4cnn(C(C)(C)CO)c4)c3)c21` [Example 30, 8-cyclopentyl-N-(3-fluoro-5-(1-(1-hydroxy-2-methylpropan-2-yl)-1H-pyrazol-4-yl)benzyl)-7-methyl-7H-purine-6-carboxamide], for which, in assay [1], the inhibition at 1 µM amounted to 99%. In addition, in assay [2], the inhibition at 0.3 µM turned out to be 102%.

`Cn1ncc2cccc(CNC(=O)c3nccc4nc(C5CCCC5)[nH]c34)c21` [Example 95, 2-cyclopentyl-N-((1-methyl-1H-indazol-7-yl)methyl)-3H-imidazo[4,5-c]pyridine-4-carboxamide]: the inhibition at 1 µM in assay [1] came out at 56%. Besides, the inhibition at 0.3 µM in assay [2] is 99%.

For `Cn1cc(-c2cc(F)cc(CNC(=O)c3nccc4nc(C5CCCC5)n(C)c34)c2)nn1` [Example 91, 2-cyclopentyl-N-(3-fluoro-5-(1-methyl-1H-1,2,3-triazol-4-yl)benzyl)-3-methyl-3H-imidazo[4,5-c]pyridine-4-carboxamide], in assay [1], the inhibition at 1 µM is 98%. Besides, the inhibition at 0.3 µM in assay [2] was determined as 101%.

Consider `Cn1cc(-c2cc(F)cc(CNC(=O)c3nccc4nc(C5CCCC5)n(C)c34)c2)ccc1=O` [Example 92, 2-cyclopentyl-N-(3-fluoro-5-(1-methyl-6-oxo-1,6-dihydropyridin-3-yl)benzyl)-3-methyl-3H-imidazo[4,5-c]pyridine-4-carboxamide], for which the inhibition at 1 µM in assay [1] was found to be 99%. The inhibition at 0.3 µM in assay [2] was found to be 100%.

For `Cc1cc(N2CC[C@@](C#N)(C3CC3)C2=O)cc(C(=O)NCc2cc(F)cc(-c3ccc(=O)n(C)c3)c2)n1` [Example 169, 4-((3S)-3-cyano-3-cyclopropyl-2-oxopyrrolidin-1-yl)-N-(3-fluoro-5-(1-methyl-6-oxo-1,6-dihydropyridin-3-yl)benzyl)-6-methylpyridine-2-carboxamide], the inhibition at 1 µM in assay [1] amounted to 98%. Moreover, the inhibition at 0.3 µM in assay [2] was determined as 100%.

For the compound `CC(C)n1cc(-c2cc(F)cc(CNC(=O)c3ncnc4nc(C5CCCC5)[nH]c34)c2)cn1` [Example 11, 8-cyclopentyl-N-(3-fluoro-5-(1-isopropyl-1H-pyrazol-4-yl)benzyl)-7H-purine-6-carboxamide], in assay [1], the inhibition at 1 µM is 95%. In assay [2], the inhibition at 0.3 µM was 102%.

As to `CC(c1nc2ncnc(C(=O)NCc3cc(F)cc(-c4cnn(C)c4)c3)c2[nH]1)C1CC1` (stereo not shown) [Example 45, 8-(1-cyclopropylethyl)-N-(3-fluoro-5-(1-methyl-1H-pyrazol-4-yl)benzyl)-7H-purine-6-carboxamide], the inhibition at 1 µM in assay [1] stood at 99%. In addition, in assay [2], the inhibition at 0.3 µM was 101%.

Turning to `Cn1cc(-c2cc(F)cc(CNC(=O)c3nccc4nc(C5CCCC5)[nH]c34)c2)nn1` [Example 89, 2-cyclopentyl-N-(3-fluoro-5-(1-methyl-1H-1,2,3-triazol-4-yl)benzyl)-3H-imidazo[4,5-c]pyridine-4-carboxamide], in assay [1], the inhibition at 1 µM turned out to be 98%. Further, the inhibition at 0.3 µM in assay [2] came to 101%.
